± gives the uncertainty stated by the source.
Test: xn = mol fraction of the nth substance listed

C[C@H](N)C(=O)[O-].C[N+](C)(C)CCO + CCO
100 kPa
Details	viscosity [mPa·s]
287.88 K, x1 = 1	4500 ± 1300
287.97 K, x1 = 0.6071	550 ± 140
288 K, x1 = 0.2012	17.5 ± 4.3
288.02 K, x1 = 0.1013	5.6 ± 1.4
288.04 K, x1 = 0.8027	1750 ± 440
288.05 K, x1 = 0.3782	89 ± 22
288.05 K, x1 = 0.5527	359 ± 88
288.05 K, x1 = 0.7056	1079 ± 270
288.09 K, x1 = 0.2903	42 ± 10
288.1 K, x1 = 1	5100 ± 1400
288.12 K, x1 = 0.894	2875 ± 730
289.23 K, x1 = 0.6071	520 ± 130
289.25 K, x1 = 0.3782	88 ± 21
289.26 K, x1 = 0.2012	17 ± 4.1
289.26 K, x1 = 0.8027	1625 ± 400
289.28 K, x1 = 0.1013	5.3 ± 1.3
289.28 K, x1 = 0.5527	339 ± 82
289.29 K, x1 = 0.7056	990 ± 250
289.31 K, x1 = 0.2903	40.6 ± 9.7
289.34 K, x1 = 0.894	2592 ± 650
289.96 K, x1 = 1	3700 ± 1000
290.21 K, x1 = 1	4300 ± 1200
290.48 K, x1 = 0.6071	470 ± 120
290.5 K, x1 = 0.3782	85 ± 20
290.51 K, x1 = 0.2012	16.4 ± 3.9
290.51 K, x1 = 0.8027	1464 ± 360
290.52 K, x1 = 0.1013	5.1 ± 1.2
290.52 K, x1 = 0.5527	315 ± 77
290.52 K, x1 = 0.7056	900 ± 220
290.53 K, x1 = 0.2903	39.2 ± 9.4
290.55 K, x1 = 0.894	2319 ± 580
291.71 K, x1 = 0.6071	430 ± 110
291.72 K, x1 = 0.2012	15.7 ± 3.8
291.72 K, x1 = 0.3782	80 ± 19
291.73 K, x1 = 0.1013	4.9 ± 1.2
291.73 K, x1 = 0.2903	37.6 ± 9
291.73 K, x1 = 0.5527	291 ± 71
291.73 K, x1 = 0.7056	820 ± 200
291.73 K, x1 = 0.8027	1311 ± 330
291.74 K, x1 = 0.894	2072 ± 520
292.02 K, x1 = 1	3052 ± 830
292.32 K, x1 = 1	3520 ± 940
292.91 K, x1 = 0.1013	4.7 ± 1.1
292.91 K, x1 = 0.3782	76 ± 18
292.91 K, x1 = 0.6071	394 ± 96
292.92 K, x1 = 0.2012	15 ± 3.6
292.92 K, x1 = 0.2903	36 ± 8.6
292.92 K, x1 = 0.5527	268 ± 65
292.92 K, x1 = 0.7056	740 ± 180
292.92 K, x1 = 0.8027	1180 ± 290
292.92 K, x1 = 0.894	1858 ± 470
294.08 K, x1 = 1	2544 ± 670
294.09 K, x1 = 0.1013	4.5 ± 1.1
294.09 K, x1 = 0.2012	14.3 ± 3.4
294.09 K, x1 = 0.2903	34.4 ± 8.3
294.09 K, x1 = 0.6071	360 ± 88
294.1 K, x1 = 0.3782	73 ± 18
294.1 K, x1 = 0.5527	248 ± 60
294.1 K, x1 = 0.7056	670 ± 170
294.1 K, x1 = 0.8027	1065 ± 260
294.1 K, x1 = 0.894	1669 ± 420
294.41 K, x1 = 1	2896 ± 760
295.27 K, x1 = 0.1013	4.4 ± 1
295.27 K, x1 = 0.2012	13.8 ± 3.3
295.27 K, x1 = 0.2903	33.1 ± 8
295.27 K, x1 = 0.3782	70 ± 17
295.27 K, x1 = 0.5527	231 ± 56
295.27 K, x1 = 0.6071	333 ± 81
295.27 K, x1 = 0.7056	620 ± 150
295.27 K, x1 = 0.8027	970 ± 240
295.27 K, x1 = 0.894	1510 ± 380
296.14 K, x1 = 1	2140 ± 560
296.45 K, x1 = 0.1013	4.2 ± 1
296.45 K, x1 = 0.2012	13.2 ± 3.2
296.45 K, x1 = 0.2903	31.7 ± 7.6
296.45 K, x1 = 0.3782	66 ± 16
296.45 K, x1 = 0.5527	216 ± 52
296.45 K, x1 = 0.6071	308 ± 75
296.45 K, x1 = 0.7056	560 ± 140
296.45 K, x1 = 0.8027	880 ± 220
296.45 K, x1 = 0.894	1365 ± 340
296.48 K, x1 = 1	2402 ± 620
297.63 K, x1 = 0.1013	3.97 ± 0.95
297.63 K, x1 = 0.2012	12.6 ± 3
297.63 K, x1 = 0.2903	30.2 ± 7.3
297.63 K, x1 = 0.3782	63 ± 15
297.63 K, x1 = 0.5527	200 ± 48
297.63 K, x1 = 0.6071	283 ± 69
297.63 K, x1 = 0.7056	520 ± 130
297.63 K, x1 = 0.8027	800 ± 200
297.63 K, x1 = 0.894	1234 ± 310
298.2 K, x1 = 1	1806 ± 460
298.54 K, x1 = 1	2000 ± 510
298.81 K, x1 = 0.1013	3.81 ± 0.92
298.81 K, x1 = 0.2012	12.1 ± 2.9
298.81 K, x1 = 0.2903	29.1 ± 7
298.81 K, x1 = 0.3782	61 ± 15
298.81 K, x1 = 0.5527	188 ± 45
298.81 K, x1 = 0.6071	263 ± 64
298.81 K, x1 = 0.7056	480 ± 120

CC(=O)[O-].CC[n+]1ccn(C)c1 + CCO + O
viscosity [mPa·s], 101 kPa
Details	298.15 K	313.15 K	328.15 K	343.15 K
x2 = 0.1044, x3 = 0.8465	3.75 ± 0.16	2.34 ± 0.1	1.6 ± 0.07	1.15 ± 0.05
x2 = 0.1179, x3 = 0.7408	9.38 ± 0.38	5.57 ± 0.23	3.58 ± 0.15	2.49 ± 0.1
x2 = 0.2002, x3 = 0.3044	31.9 ± 1.4	18.16 ± 0.77	11.45 ± 0.48	7.86 ± 0.33
x2 = 0.2242, x3 = 0.3101	28 ± 1.2	16.28 ± 0.69	10.41 ± 0.44	7.22 ± 0.31
x2 = 0.2489, x3 = 0.6021	8.23 ± 0.34	5.06 ± 0.21	–	–
x2 = 0.2635, x3 = 0.6879	3.8 ± 0.16	2.41 ± 0.1	1.64 ± 0.07	1.19 ± 0.05
x2 = 0.2995, x3 = 0.4047	14.14 ± 0.6	8.83 ± 0.37	5.91 ± 0.25	4.2 ± 0.18
x2 = 0.4124, x3 = 0.1068	20.57 ± 0.9	12.7 ± 0.56	8.57 ± 0.38	6.09 ± 0.27
x2 = 0.463, x3 = 0.2523	10.07 ± 0.44	6.66 ± 0.29	–	–
x2 = 0.4916, x3 = 0.4053	4.47 ± 0.19	2.99 ± 0.13	–	–
x2 = 0.5914, x3 = 0.1068	8.43 ± 0.38	–	–	–
x2 = 0.7052, x3 = 0.1967	3.19 ± 0.15	–	–	–

From the CheMixHub ionic liquid set
